Measured values: patent US10647675B2 (priority 2015, dated 2020)
≈ marks a conversion by molar mass, not a printed value.

What was measured:
[1] = system: Trichophyton mentagrophytes SM-110; assay: Antifungal activity evaluation test: minimum inhibitory concentration (MIC), broth dilution by reference to CLSI M38-A2; format: cell-based; conditions: SM110, read-out: MIC (T. menta.)
How it was run: (§1)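 Broth microdilution after CLSI M38-A2: 2-fold DMSO dilution series in MOPS-buffered RPMI 1640 pH 7.0, inoculum 2×10^3 cells/mL final. Incubated 35° C for 4 days; MIC (μg/mL) is lowest concentration giving visually ≥80% growth inhibition versus growth control.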

[2] = system: Trichophyton rubrum KD-1130; assay: as above; format: cell-based; conditions: KD1130, read-out: MIC (T. rubrum)
How it was run: as §1

Row | Structure (SMILES) | MIC [1] [µg/mL] | MIC [2] [µg/mL]
1 | CC(F)(F)c1ccc(Oc2ncccc2-c2cccc3c(Cl)cnn23)cn1 [I-116, 3-chloro-7-(2-{[6-(1,1-difluoroethyl)pyridin-3-yl]oxy}pyridin-3-yl)pyrazolo[1,5-a]pyridine] | ≤ 0.1 | ≤ 0.1
2 | COc1ccccc1-c1cccnc1Oc1cnc(C(F)(F)F)c(C)c1 [I-117, 5-{[3-(2-methoxyphenyl)pyridin-2-yl]oxy}-3-methyl-2-(trifluoromethyl)pyridine] | ≤ 0.1 | ≤ 0.1
3 | COc1cc(F)ccc1-c1cccnc1Oc1cnc(C(F)(F)F)c(C)c1 [I-118, 5-{[3-(4-fluoro-2-methoxyphenyl)pyridin-2-yl]oxy}-3-methyl-2-(trifluoromethyl)pyridine] | ≤ 0.1 | ≤ 0.1
4 | COc1ncc(F)cc1-c1cccnc1Oc1cnc(C(F)(F)F)c(C)c1 [I-119, 5-fluoro-2-methoxy-2′-{[5-methyl-6-(trifluoromethyl)pyridin-3-yl]oxy}-3,3′-bipyridine] | ≤ 0.1 | ≤ 0.1
5 | COc1ccccc1-c1cccnc1Oc1cnc(C(F)F)c(C)c1 [I-120] | ≤ 0.1 | ≤ 0.1
6 | COc1cc(F)ccc1-c1cccnc1Oc1cnc(C(F)F)c(C)c1 [I-121, 2-(difluoromethyl)-5-{[3-(4-fluoro-2-methoxyphenyl)pyridin-2-yl]oxy}-3-methylpyridine] | ≤ 0.1 | ≤ 0.1
7 | COc1ccc(F)cc1-c1cccnc1Oc1cnc(C(F)F)c(C)c1 [I-122, 2-(difluoromethyl)-5-{[3-(5-fluoro-2-methoxyphenyl)pyridin-2-yl]oxy}-3-methylpyridine] | ≤ 0.1 | ≤ 0.1
8 | COc1ccc(-c2cccnc2Oc2cnc(C(F)F)c(C)c2)c(OC)n1 [I-123, 2′-{[6-(difluoromethyl)-5-methylpyridin-3-yl]oxy}-2,6-dimethoxy-3,3′-bipyridine] | ≤ 0.1 | ≤ 0.1
9 | CCc1ccc(Oc2ncccc2-c2ccccc2OC)cn1 [I-124, 2-[(6-ethylpyridin-3-yl)oxy]-3-(2-methoxyphenyl)pyridine] | 0.2 to 0.78 (≈ 0.653 to 2.55 µM) | 0.2 to 0.78 (≈ 0.653 to 2.55 µM)
10 | CCc1ccc(Oc2ncccc2-c2cccc3c2OCC3)cn1 [I-125] | ≤ 0.1 | 0.2 to 0.78 (≈ 0.628 to 2.45 µM)
11 | CCc1ccc(Oc2ncccc2-c2cccnc2OC)cn1 [I-126, 2-[(6-ethylpyridin-3-yl)oxy]-2′-methoxy-3,3′-bipyridine] | 0.2 to 0.78 (≈ 0.651 to 2.54 µM) | 0.2 to 0.78 (≈ 0.651 to 2.54 µM)
12 | CCc1ccc(Oc2ncccc2-c2cnccc2OC)cn1 [I-127, 2-[(6-ethylpyridin-3-yl)oxy]-4′-methoxy-3,3′-bipyridine] | 1.56 to 6.25 (≈ 5.08 to 20.3 µM) | 1.56 to 6.25 (≈ 5.08 to 20.3 µM)
13 | COc1ccccc1-c1cccnc1Oc1ccc(C2CC2)nc1 [I-128, 2-[(6-cyclopropylpyridin-3-yl)oxy]-3-(2-methoxyphenyl)pyridine] | ≤ 0.1 | ≤ 0.1
14 | COc1cc(F)ccc1-c1cccnc1Oc1ccc(C2CC2)nc1 [I-129, 2-[(6-cyclopropylpyridin-3-yl)oxy]-3-(4-fluoro-2-methoxyphenyl)pyridine] | ≤ 0.1 | ≤ 0.1
15 | COc1ncccc1-c1cccnc1Oc1ccc(C2CC2)nc1 [I-130, 2-[(6-cyclopropylpyridin-3-yl)oxy]-2′-methoxy-3,3′-bipyridine] | 0.2 to 0.78 (≈ 0.626 to 2.44 µM) | 0.2 to 0.78 (≈ 0.626 to 2.44 µM)
16 | COc1ncccc1-c1cccnc1Oc1cnc(C2CC2)c(Cl)c1 [I-131, 2-[(5-chloro-6-cyclopropylpyridin-3-yl)oxy]-2′-methoxy-3,3′-bipyridine] | 0.2 to 0.78 (≈ 0.565 to 2.2 µM) | 0.2 to 0.78 (≈ 0.565 to 2.2 µM)
17 | COc1ccncc1-c1cccnc1Oc1cnc(C2CC2)c(Cl)c1 [I-132, 2-[(5-chloro-6-cyclopropylpyridin-3-yl)oxy]-4′-methoxy-3,3′-bipyridine] | 0.2 to 0.78 (≈ 0.565 to 2.2 µM) | 1.56 to 6.25 (≈ 4.41 to 17.7 µM)
18 | COc1ccncc1-c1cccnc1Oc1ccc(C2CC2)nc1 [I-133, 2-[(6-cyclopropylpyridin-3-yl)oxy]-4′-methoxy-3,3′-bipyridine] | 1.56 to 6.25 (≈ 4.88 to 19.6 µM) | 1.56 to 6.25 (≈ 4.88 to 19.6 µM)
19 | COc1ccccc1-c1cccnc1Oc1cnc2c(c1)CCCC2 [I-134, 3-{[3-(2-methoxyphenyl)pyridin-2-yl]oxy}-5,6,7,8-tetrahydroquinoline] | ≤ 0.1 | ≤ 0.1
